From the NIST ThermoML archive (doi:10.1021/je010272x)
± gives the expanded uncertainty stated by the source.

Legend:
[1] = Boiling temperature at pressure P; settings: Liquid, ebulliometry
[2] = Liquid

Row | vapor or sublimation pressure ([2]; 357.85 K) [kPa] | vapor or sublimation pressure ([2]; 364.85 K) [kPa] | vapor or sublimation pressure ([2]; 370.45 K) [kPa] | vapor or sublimation pressure ([2]; 372.95 K) [kPa] | vapor or sublimation pressure ([2]; 375.15 K) [kPa] | vapor or sublimation pressure ([2]; 379.05 K) [kPa] | vapor or sublimation pressure ([2]; 382.75 K) [kPa] | vapor or sublimation pressure ([2]; 385.65 K) [kPa] | vapor or sublimation pressure ([2]; 388.95 K) [kPa] | vapor or sublimation pressure ([2]; 390.35 K) [kPa] | vapor or sublimation pressure ([2]; 391.65 K) [kPa] | vapor or sublimation pressure ([2]; 394.15 K) [kPa] | vapor or sublimation pressure ([2]; 396.65 K) [kPa] | vapor or sublimation pressure ([2]; 398.85 K) [kPa] | vapor or sublimation pressure ([2]; 401.05 K) [kPa] | vapor or sublimation pressure ([2]; 402.45 K) [kPa] | Compound | Boiling temperature at pressure P ([1]; 33.3 kPa) [°C] | Boiling temperature at pressure P ([1]; 66.6 kPa) [°C] | Boiling temperature at pressure P ([1]; 101.3 kPa) [°C]
1 |  |  |  |  |  |  |  |  |  |  |  |  |  |  |  |  | CCO [ethanol] | 52.60 ± 0.2 | 68.00 ± 0.2 | 78.30 ± 0.2
2 | 16.7 ± 0.3 | 23.3 ± 0.3 | 30 ± 0.4 | 33.3 ± 0.4 | 36.7 ± 0.4 | 43.3 ± 0.4 | 50 ± 0.4 | 56.6 ± 0.5 | 63.3 ± 0.5 | 66.6 ± 0.5 | 70 ± 0.5 | 76.6 ± 0.5 | 83.3 ± 0.6 | 90 ± 0.6 | 96.6 ± 0.6 | 101.3 ± 0.6 | CCC(C)CO (centres undefined) [2-methyl-1-butanol] |  |  | 
